Reference: article PMC9964319, “Half-Sandwich Rhodium Complexes with Releasable N-Donor Monodentate Ligands: Solution Chemical Properties and the Possibility for Acidosis Activation” (Pharmaceutics, 2023)
Read-outs that look alike come from different tables or passages of the source.

Key:
S. aureus 272123 (MRSA) = experiment: Antibacterial assay, MIC in 96-well plates at different pH; format: cell-based
Description: (§1) The antibacterial effect was studied in two Gram-positive and in two Gram-negative strains. The Gram-positive S. aureus ATCC 25923 (ATCC, Manassas, VA, USA) is a methicillin-susceptible reference bacterial strain, while S. aureus 272123 is a clinical isolate and resistant to methicillin and ofloxacin (MRSA), which was given by Prof. Dr. Leonard Amaral (Institute of Hygiene and Tropical Medicine, Lisbon, Portugal). The Gram-negative strains were E. coli ATCC 25922 (ATCC, Manassas, VA, USA), which is sensitive to antibiotics, and E. coli 32313 (provided by the Institute of Clinical Microbiology, University of Szeged, Hungary), which is resistant to different antibiotics (trimethoprim/sulfamethoxazole, gentamicin, ciprofloxacin, and norfloxacin).
(§2) The minimum inhibitory concentrations (MICs) of the compounds were determined in 96-well plates based on the Clinical and Laboratory Standard Institute guidelines. The compounds were diluted in 100 μL of Mueller Hinton broth. Then, an overnight bacterial culture diluted 10,000 times in 100 μL of medium was added to each well, with the exception of the medium control wells. For each strain and each tested compound, four pH values were set (5, 6, 7, and 8). Each sample was triplicated.

[1] = system: S. aureus ATCC 25923 (methicillin-susceptible); experiment: as above; format: cell-based
Description: as §1, §2

[2] = system: E. coli ATCC 25922 (sensitive); experiment: as above; format: cell-based
Description: as §1, §2

[3] = system: E. coli 32313 (resistant); experiment: as above; format: cell-based
Description: as §1, §2

[4] = system: Colo205 human colon adenocarcinoma cell line (doxorubicin-sensitive); experiment: MTT assay, cytotoxicity at pH 6 and 7; format: cell-based
Protocol: (§3) All cell culture reagents were obtained from Sigma-Aldrich (Merck KGaA, Darmstadt, Germany) and plasticware from Sarstedt (Nümbrecht, Germany). Human colonic adenocarcinoma cell lines Colo205 (catalog number: ATCC-CCL-222) and its doxorubicin-resistant counterpart Colo320 (catalog number: ATCC-CCL-220.1) were purchased from LGC Promochem (Teddington, UK). The cells were cultured in RPMI 1640 medium supplemented with 10% heat-inactivated fetal bovine serum, 2 mM L-glutamine, 1 mM sodium pyruvate, and 100 mM HEPES buffer, adjusting the pH to 6.0 or 7.0. The cells were incubated at 37 °C in a 5% CO2–95% air atmosphere. The semiadherent human colon cancer cells were detached with Trypsin-Versene solution for 5 min at 37 °C.
(§4) The solutions were freshly prepared prior to measurements (see Section 2.1). […] Firstly, these samples were diluted in complete culture medium; then, two-fold serial dilutions of the compounds were prepared in 100 μL of RPMI 1640, horizontally. The semiadherent colonic adenocarcinoma cells were treated with Trypsin-Versene solution. They were adjusted to a density of 1 × 10^4 cells in 100 μL of RPMI 1640 medium and were added to each well, with the exception of the medium control wells. The final volume of the wells containing compounds and cells was 200 μL. Samples were triplicated. The pH of the medium was adjusted to 6.0 or 7.0.
(§5) The culture plates were incubated at 37 °C for 72 h; at the end of the incubation period, 20 μL of MTT solution (from a stock solution of 5 mg/mL) was added to each well. After incubation at 37 °C for 4 h, 100 μL of SDS solution (10% in 0.01 M HCI) was added to each well, and the plates were further incubated at 37 °C overnight. Cell growth was determined by measuring the optical density (OD) at 540/630 nm with a Multiscan EX ELISA reader (Thermo Labsystems, Cheshire, WA, USA). […] Curves were fitted using GraphPad Prism software (2022, version 9.4.1, Graphpad Software (LLC) d.b.a Dotmatics, San Diego, CA, USA) using the sigmoidal dose–response model (comparing variable and fixed slopes).
(§6) The pH-dependent solution speciation of the selected mixed-ligand complexes is an important feature in the hypothesized mechanism of action, and the modeling of acidosis is necessary for the in vitro anticancer assays. In order to find out the cytotoxicity difference based on the pH of the medium, cytotoxic activity was determined at pH 6 and 7 by MTT assay in two human colon adenocarcinoma cell lines (doxorubicin-sensitive Colo205 and doxorubicin-resistant Colo320). […] The mixed-ligand complexes were prepared prior to the measurements, as was already described in Section 2.1. With this method, the effect of the different counter ions could be avoided, and a more adequate comparison of the mixed-ligand complexes could be conducted.

[5] = system: Colo320 human colon adenocarcinoma cell line (doxorubicin-resistant); experiment: MTT assay, cytotoxicity at pH 6 and 7; format: cell-based
Protocol: as §3, §4, §5, §6

[6] = Formation constants of mixed-ligand half-sandwich complexes (UV-vis and 1H NMR); format: physicochemical; conditions: aqua complex + monodentate ligand; I = 0.10 M (KCl); t = 25.0 °C; UV-vis and 1H NMR
Protocol: NMR spectroscopic studies were carried out on a Bruker Avance III HD Ascend 500 Plus instrument. For the aqueous samples, ^1H NMR spectra were recorded with the WATERGATE water suppression pulse scheme using DSS internal standard. The highest peak of DSS was 0.00 ppm. The measurement was very similar to the UV-vis measurement since the complex–to–monodentate ligand ratio was also between 0–10 equivalents; the spectra were recorded after the given waiting time. […] This technique was useful in those cases where no spectral change was visible during the UV-vis titrations.
In both measurement methods, the formation constant (K) was obtained using the computer program PSEQUAD [38].
It is worthwhile to mention that the liberation of the bidentate ligand was not detected even at higher monodentate ligand excess (~10), which means that the disruption of the bond between the bidentate ligand and the metal center is not feasible under these conditions. The calculated formation constants are compared in Figure 5 and are collected in Table S2. The formation of the mixed-ligand complexes was not detected in three cases under the applied conditions, namely [Ru(p-cym)(en)(mim)]^2+, [Ru(p-cym)(phen)(mim)]^2+, and [Ru(p-cym)(en)(Py)]^2+. For these complexes, only a higher limit of the formation constant could be given, assuming that a maximum of 5% of the complex would form (limit of detection) under the conditions used for ^1H NMR spectroscopy. Based on Figure 5, the following trends are observed in the formation constants: (i) [RhCp*(en)(H2O)]^2+ and [RhCp*(phen)(H2O)]^2+ have a stronger monodentate ligand-binding ability than the Ru(p-cym) analogs; (ii) the formation constants of the [Ru(p-cym)(8HQH-1)(N)]^+ complexes are similar or somewhat higher than those of the RhCp* analogs; (iii) a stability trend for the monodentate ligand: mim > bim > Py (iv) and the bidentate ligand: 8HQH-1 > phen ≥ en can be seen.

[7] = pH 5, after one day, read-out: MIC
[8] = pH 6, after one day, read-out: MIC
[9] = pH 7, after one day, read-out: MIC
[10] = pH 8, after one day, read-out: MIC
[11] = S. aureus sensitive, pH 7, after one day, read-out: MIC
[12] = S. aureus sensitive, pH 8, after one day, read-out: MIC
[13] = E. coli sensitive, pH 5, after one day, read-out: MIC
[14] = E. coli sensitive, pH 6, after one day, read-out: MIC
[15] = E. coli sensitive, pH 7, after one day, read-out: MIC
[16] = E. coli sensitive, pH 8, after one day, read-out: MIC
[17] = E. coli resistant, pH 5, after one day, read-out: MIC
[18] = E. coli resistant, pH 6, after one day, read-out: MIC
[19] = E. coli resistant, pH 7, after one day, read-out: MIC
[20] = E. coli resistant, pH 8, after one day, read-out: MIC
[21] = Colo205, pH 6, 72 h incubation, read-out: IC50
[22] = Colo205, pH 7, 72 h incubation, read-out: IC50
[23] = Colo320, pH 6, 72 h incubation, read-out: IC50
[24] = Colo320, pH 7, 72 h incubation, read-out: IC50

Cc1c(C)c(C)[c-](C)c1C.[Cl-].[Cl-].[Rh+3].c1cnc2c(c1)ccc1cccnc12 [[RhCp*(phen)Cl]Cl]
> 100 µM: MIC (S. aureus 272123 (MRSA); any of the bacterial strains, read-out: MIC (no antibacterial effect)) | MIC (S. aureus 272123 (MRSA); [7]) | MIC (S. aureus 272123 (MRSA); [10]) | MIC [1, 12] | MIC ([1]; any of the bacterial strains, S. aureus, read-out: MIC (no antibacterial effect)) | MIC [2, 13] | MIC [2, 16] | MIC ([2]; any of the bacterial strains, E. coli, read-out: MIC (no antibacterial effect)) | MIC [3, 17] | MIC [3, 20] | MIC ([3]; any of the bacterial strains, resistant E. coli, read-out: MIC (no antibacterial effect)) | IC50 [4, 21] | IC50 [4, 22] | IC50 [5, 23] | IC50 [5, 24]
>100 µM: MIC (S. aureus 272123 (MRSA); [8]) | MIC (S. aureus 272123 (MRSA); [9]) | MIC [1, 11] | MIC [2, 14] | MIC [2, 15] | MIC [3, 18] | MIC [3, 19]

Cc1c(C)c(C)[c-](C)c1C.NCCN.[Rh+3].c1ccc2[nH]cnc2c1 [[RhCp*(en)(H2O)]2+ + bim]
3.3 ± 0.2: Formation constant logK of mixed-ligand complex [6]

Cc1c(C)c(C)[c-](C)c1C.[Cl][Rh+][O]c1cccc2cccnc12 [[RhCp*(8HQH−1)Cl]]
8.1 ± 0.5 µM: IC50 [4, 21]
> 100 µM: MIC [2, 13] | MIC [2, 16] | MIC [3, 17] | MIC [3, 20]
3.3 ± 0.1 µM: IC50 [5, 24]
8.8 ± 0.4 µM: IC50 [4, 22]
12.5 µM: MIC (S. aureus 272123 (MRSA); [8]) | MIC (S. aureus 272123 (MRSA); [9]) | MIC (S. aureus 272123 (MRSA); [10]) | MIC [1, 11] | MIC [1, 12]
>100 µM: MIC [2, 14] | MIC [2, 15] | MIC [3, 18] | MIC [3, 19]
6.1 ± 0.2 µM: IC50 [5, 23]
50 µM: MIC (S. aureus 272123 (MRSA); [7])

c1ccncc1 [Py, pyridine, reference compound]
> 100 µM: MIC (S. aureus 272123 (MRSA); Staphylococcus aureus, 24 h, pH 5) | MIC (S. aureus 272123 (MRSA); Staphylococcus aureus, 24 h, pH 6) | MIC (S. aureus 272123 (MRSA); Staphylococcus aureus, 24 h, pH 7) | MIC (S. aureus 272123 (MRSA); Staphylococcus aureus, 24 h, pH 8) | MIC (S. aureus 272123 (MRSA); Staphylococcus aureus, read-out: MIC (no antibacterial effect)) | MIC ([1]; Staphylococcus aureus, ATCC25923, 24 h, pH 7) | MIC ([1]; Staphylococcus aureus, ATCC25923, 24 h, pH 8) | MIC ([1]; Staphylococcus aureus, ATCC25923, read-out: MIC (no antibacterial effect)) | MIC ([2]; Escherichia coli, ATCC25922, 24 h, pH 5) | MIC ([2]; Escherichia coli, ATCC25922, 24 h, pH 6) | MIC ([2]; Escherichia coli, ATCC25922, 24 h, pH 7) | MIC ([2]; Escherichia coli, ATCC25922, 24 h, pH 8) | MIC ([2]; Escherichia coli, ATCC25922, read-out: MIC (no antibacterial effect)) | MIC ([3]; Escherichia coli, 24 h, pH 5) | MIC ([3]; Escherichia coli, 24 h, pH 6) | MIC ([3]; Escherichia coli, 24 h, pH 7) | MIC ([3]; Escherichia coli, 24 h, pH 8) | MIC ([3]; Escherichia coli, read-out: MIC (no antibacterial effect)) | IC50 ([4]; Homo sapiens, COLO 205, 72 h, pH 6) | IC50 ([4]; Homo sapiens, COLO 205, 72 h, pH 7) | IC50 ([5]; Homo sapiens, COLO 320, 72 h, pH 6) | IC50 ([5]; Homo sapiens, COLO 320, 72 h, pH 7)

Cc1c(C)c(C)[c-](C)c1C.Clc1ccc(COC(Cn2ccnc2)c2ccc(Cl)cc2Cl)cc1.[Cl-].[Rh+2][O]c1cccc2cccnc12 (racemic) [[RhCp*(8HQH−1)Cl] +econ]
~1.8 µM: IC50 ([4]; Colo205, pH 6, 72 h incubation, listed as [RhCp*(8HQH−1)(H2O)]^+ with econazole, read-out: IC50)
3 ± 0.1 µM: IC50 [5, 24]
25 µM: MIC [2, 13] | MIC [2, 14] | MIC [2, 15] | MIC [2, 16]
3.3 ± 0.1 µM: IC50 [4, 22]
6.25 µM: MIC (S. aureus 272123 (MRSA); [8])
3.125 µM: MIC (S. aureus 272123 (MRSA); [9]) | MIC (S. aureus 272123 (MRSA); [10])
0.39 µM: MIC [1, 11] | MIC [1, 12]
50 µM: MIC [3, 17] | MIC [3, 20]
1.8 ± 0.1 µM: IC50 [4, 21]
>100 µM: MIC [3, 18] | MIC [3, 19]
4.52 ± 0.04 µM: IC50 [5, 23]
12.5 µM: MIC (S. aureus 272123 (MRSA); [7])
